Measurements as given in patent US20230233569A1 (Revolution Medicines, Inc., priority 2020, published 2023).
Values joined by “and” are separate entries in the source; they are usually repeats but may differ in a detail not shown here. Equal entries are not always repeated. Where two headings read alike, the source gives them in different places.

Assays:
KRAS WT = KRAS WT (Homo sapiens, UniProt P01116+P62937); assay: Disruption of BRAF RBD interaction with Ras (FRET / MOA assay, with Cyclophilin A); type: biochemical
Chain of KRAS WT (P01116 1-169 isoform P01116-2 limits assumed): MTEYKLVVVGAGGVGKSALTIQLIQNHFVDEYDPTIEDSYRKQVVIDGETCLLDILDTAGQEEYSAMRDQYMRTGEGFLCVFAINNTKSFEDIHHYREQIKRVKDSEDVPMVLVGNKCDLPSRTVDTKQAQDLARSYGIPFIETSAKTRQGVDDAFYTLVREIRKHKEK
Chain of KRAS WT (P62937 whole entry): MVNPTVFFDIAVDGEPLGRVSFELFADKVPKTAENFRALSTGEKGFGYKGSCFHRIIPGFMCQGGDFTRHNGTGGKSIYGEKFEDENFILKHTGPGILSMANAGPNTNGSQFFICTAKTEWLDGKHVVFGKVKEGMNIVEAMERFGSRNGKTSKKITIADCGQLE
Summary of the method: (§1)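 Measured via TR-FRET after 3 h at 25 °C with compound (30 μM top, threefold serial steps, ten concentrations) plus K-Ras, Cyclophilin A and BRAF RBD, followed by 1.5 h with anti-His europium (10 nM) and anti-GST allophycocyanin (50 nM). Signal loss versus DMSO gave IC50.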

KRAS G13D = KRAS G13D (Homo sapiens, UniProt P01116+P62937, G13D); assay: as above; type: biochemical
Chain of KRAS G13D (P01116 1-169 isoform P01116-2 G13D limits assumed): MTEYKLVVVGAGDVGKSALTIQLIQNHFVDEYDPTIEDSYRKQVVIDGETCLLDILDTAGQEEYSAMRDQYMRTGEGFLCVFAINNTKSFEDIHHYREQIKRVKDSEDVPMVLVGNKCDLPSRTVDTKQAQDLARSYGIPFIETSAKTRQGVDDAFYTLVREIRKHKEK
Chain of KRAS G13D (P62937 whole entry): as the sequence (P62937 whole entry) above
Summary of the method: as §1

KRAS G12S = KRAS G12S (Homo sapiens, UniProt P01116+P62937, G12S); assay: as above; type: biochemical
Chain of KRAS G12S (P01116 1-169 isoform P01116-2 G12S limits assumed): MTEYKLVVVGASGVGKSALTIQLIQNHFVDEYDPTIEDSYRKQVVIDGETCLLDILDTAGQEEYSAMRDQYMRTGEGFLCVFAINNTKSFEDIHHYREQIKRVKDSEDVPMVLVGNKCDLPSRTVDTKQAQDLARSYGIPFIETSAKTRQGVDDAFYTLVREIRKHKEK
Chain of KRAS G12S (P62937 whole entry): as the sequence (P62937 whole entry) above
Summary of the method: as §1

KRAS G12V = KRAS G12V (Homo sapiens, UniProt P01116+P62937, G12V); assay: as above; type: biochemical
Chain of KRAS G12V (P01116 1-169 isoform P01116-2 G12V limits assumed): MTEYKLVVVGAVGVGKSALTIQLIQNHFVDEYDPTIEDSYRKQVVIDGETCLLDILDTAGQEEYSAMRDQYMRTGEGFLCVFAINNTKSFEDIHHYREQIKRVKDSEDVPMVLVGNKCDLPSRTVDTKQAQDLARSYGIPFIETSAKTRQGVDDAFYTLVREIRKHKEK
Chain of KRAS G12V (P62937 whole entry): as the sequence (P62937 whole entry) above
Summary of the method: as §1

KRAS G12C = KRAS G12C (Homo sapiens, UniProt P01116+P62937, G12C); assay: as above; type: biochemical
Chain of KRAS G12C (P01116 1-169 isoform P01116-2 G12C): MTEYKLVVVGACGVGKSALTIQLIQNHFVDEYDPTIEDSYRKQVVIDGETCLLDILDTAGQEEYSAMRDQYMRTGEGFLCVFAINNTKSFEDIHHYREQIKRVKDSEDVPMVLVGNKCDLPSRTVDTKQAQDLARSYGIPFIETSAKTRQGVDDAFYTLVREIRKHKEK
Chain of KRAS G12C (P62937 whole entry): as the sequence (P62937 whole entry) above
Summary of the method: as §1

KRAS G12D = KRAS G12D (Homo sapiens, UniProt P01116+P62937, G12D); assay: as above; type: biochemical
Chain of KRAS G12D (P01116 1-169 isoform P01116-2 G12D limits assumed): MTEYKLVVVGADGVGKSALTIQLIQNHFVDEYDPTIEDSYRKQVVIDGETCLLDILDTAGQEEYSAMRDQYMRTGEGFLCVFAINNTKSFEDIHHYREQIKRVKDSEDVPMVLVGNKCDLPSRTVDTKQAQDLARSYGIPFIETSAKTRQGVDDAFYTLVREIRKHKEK
Chain of KRAS G12D (P62937 whole entry): as the sequence (P62937 whole entry) above
Summary of the method: as §1

NRAS G12C = NRAS G12C (Homo sapiens, UniProt P01111+P62937, G12C); assay: as above; type: biochemical
Chain of NRAS G12C (P01111 whole entry G12C): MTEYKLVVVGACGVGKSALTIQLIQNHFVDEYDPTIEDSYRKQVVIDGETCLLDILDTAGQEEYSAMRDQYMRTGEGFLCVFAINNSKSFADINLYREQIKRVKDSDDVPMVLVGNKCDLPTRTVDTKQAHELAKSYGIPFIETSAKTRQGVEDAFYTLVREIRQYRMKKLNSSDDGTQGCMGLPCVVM
Chain of NRAS G12C (P62937 whole entry): as the sequence (P62937 whole entry) above

KRAS G13C = KRAS G13C (Homo sapiens, UniProt P01116+P62937, G13C); assay: as above; type: biochemical
Chain of KRAS G13C (P01116 1-169 isoform P01116-2 G13C): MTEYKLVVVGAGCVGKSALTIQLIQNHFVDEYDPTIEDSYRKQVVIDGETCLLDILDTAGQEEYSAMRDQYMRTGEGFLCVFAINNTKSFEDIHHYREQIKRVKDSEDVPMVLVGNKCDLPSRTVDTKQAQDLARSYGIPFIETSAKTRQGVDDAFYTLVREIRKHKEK
Chain of KRAS G13C (P62937 whole entry): as the sequence (P62937 whole entry) above
Summary of the method: as §1

Capan-1 (K-Ras G12V) = assay: CellTiter-Glo cell viability assay, 5-day treatment; type: cell-based; conditions: Homo sapiens, CAPAN-1, 120 h, 5-day treatment; read-out: Capan-1 Cell Viability assay data (K-Ras G12V, IC50)
Summary of the method: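 Compounds were dispensed directly onto seeded cells and incubated for 5 days, then plates were equilibrated to room temperature for about 30 minutes before luminescence reading. Signals were expressed as percent of the mean DMSO control and fitted with a four-parameter logistic curve.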

[1] = KRAS WT, read-out: KRAS WT FRET data IC50
[2] = KRAS G13D, read-out: KRAS G13D FRET data IC50
[3] = read-out: KRAS G12S FRET data, IC50
[4] = KRAS G12V, read-out: KRAS G12V FRET data IC50
[5] = read-out: KRAS G12C FRET data, IC50
[6] = read-out: KRAS G12D FRET data, IC50
[7] = NRAS G12C, read-out: NRAS G12C FRET data IC50
[8] = read-out: KRAS G13C FRET data, IC50
[9] = KRAS WT FRET data IC50, KRAS WT
[10] = KRAS G13D FRET data IC50, KRAS G13D
[11] = KRAS G12V FRET data IC50, KRAS G12V
[12] = NRAS G12C FRET data IC50, NRAS G12C

Row | Compound | IC50 (KRAS WT; [1]) [nM] | IC50 (KRAS G13D; [2]) [nM] | IC50 (KRAS G12S; [3]) [nM] | IC50 (KRAS G12V; [4]) [nM] | IC50 (KRAS G12C; [5]) [nM] | IC50 (KRAS G12D; [6]) [nM] | IC50 (NRAS G12C; [7]) [nM] | IC50 (KRAS G13C; [8]) [nM] | IC50 (KRAS WT; [9]) | IC50 (KRAS G13D; [10]) | IC50 (KRAS G12S; KRAS G12S FRET data, IC50) | IC50 (KRAS G12V; [11]) | IC50 (KRAS G12C; KRAS G12C FRET data, IC50) | IC50 (KRAS G12D; KRAS G12D FRET data, IC50) | IC50 (NRAS G12C; [12]) | IC50 (KRAS G13C; KRAS G13C FRET data, IC50) | IC50 (Capan-1 (K-Ras G12V)) [nM]
1 | CCn1c(-c2cccnc2[C@H](C)OC)c2c3cc(ccc31)-c1cc(O)cc(c1)C[C@H](NS(=O)(=O)CCN(C)C)C(=O)N1CCC[C@H](N1)C(=O)OCC(C)(C)C2 (racemic) [Example A190] | > 10000 | > 10000 | > 10000 | > 10000 | > 10000 | > 10000 | > 10000 | > 10000 |  |  |  |  |  |  |  |  | > 10000
2 | CCn1c(-c2cccnc2[C@H](C)OC)c2c3cc(ccc31)-c1cc(O)cc(c1)C[C@H](NS(=O)(=O)c1cnc[nH]1)C(=O)N1CCC[C@H](N1)C(=O)OCC(C)(C)C2 (racemic) [Example A192] | > 10000 | > 10000 | > 10000 | > 10000 | > 10000 | > 10000 | > 10000 | > 10000 |  |  |  |  |  |  |  |  | > 10000
3 | CCn1c(-c2cnccc2COC)c2c3cc(ccc31)-c1cc(O)cc(c1)C[C@H](NC(=O)[C@H](C(C)C)N(C)C(=O)[C@@H]1CN(C(C)=O)C[C@@H]1C(F)(F)F)C(=O)N1CCC[C@H](N1)C(=O)OCC(C)(C)C2 [Example A80] | 100 to 1000 | 100 to 1000 | 100 to 1000 | 1000 to 10000 | 100 to 1000 | 100 to 1000 | 100 to 1000 | 100 to 1000 |  |  |  |  |  |  |  |  | 1000 to 10000
4 | CCn1c(-c2cnccc2COC)c2c3cc(ccc31)-c1cc(O)cc(c1)C[C@H](NC(=O)[C@H](C(C)C)N(C)C(=O)[C@H](C)O)C(=O)N1CCC[C@H](N1)C(=O)OCC(C)(C)C2 [Example A93] |  |  |  |  |  |  |  |  | 100 to 1000 nM | 100 to 1000 nM | 100 to 1000 nM | 100 to 1000 nM | 100 to 1000 nM | 1000 to 10000 nM | 100 to 1000 nM | 100 to 1000 nM | 1000 to 10000
5 | CCn1c(-c2cccnc2[C@H](C)OC)c2c3cc(ccc31)-c1cccc(c1)C[C@H](NC(=O)[C@H](C(C)C)N(C)C(=O)[C@H]1CCN(C(=O)CN)C1)C(=O)N1CCC[C@H](N1)C(=O)OCC(C)(C)C2 [Example A105] | 1000 to 10000 | 1000 to 10000 | 1000 to 10000 | 1000 to 10000 | 100 to 1000 | 1000 to 10000 | 1000 to 10000 | 100 to 1000 |  |  |  |  |  |  |  |  | > 10000

Further lines, with some results ahead:

Row | IC50 (KRAS WT; [1]) [nM] | IC50 (KRAS G13D; [2]) [nM] | IC50 (KRAS G12S; [3]) [nM] | IC50 (KRAS G12V; [4]) [nM] | IC50 (KRAS G12C; [5]) [nM] | IC50 (KRAS G12D; [6]) [nM] | IC50 (NRAS G12C; [7]) [nM] | IC50 (KRAS G13C; [8]) [nM] | IC50 (KRAS WT; [9]) | IC50 (KRAS G13D; [10]) | IC50 (KRAS G12S; KRAS G12S FRET data, IC50) | IC50 (KRAS G12V; [11]) | IC50 (KRAS G12C; KRAS G12C FRET data, IC50) | IC50 (KRAS G12D; KRAS G12D FRET data, IC50) | IC50 (NRAS G12C; [12]) | IC50 (KRAS G13C; KRAS G13C FRET data, IC50) | Compound | IC50 (Capan-1 (K-Ras G12V)) [nM]
6 |  |  |  |  |  |  |  |  | 1000 to 10000 nM and 10 to 100 nM | 100 to 1000 nM and 10 to 100 nM | 1000 to 10000 nM and 10 to 100 nM | 100 to 1000 nM and > 10000 nM | 100 to 1000 nM and 10 to 100 nM | 1000 to 10000 nM and 10 to 100 nM | 1000 to 10000 nM and 10 to 100 nM | 100 to 1000 nM and 10 to 100 nM | CCn1c(-c2cccnc2[C@H](C)OC)c2c3cc(ccc31)-c1cc(O)cc(c1)C[C@H](NC(=O)[C@H](C(C)C)N(C)C(=O)[C@H]1CCNC1)C(=O)N1CCC[C@H](N1)C(=O)OCC(C)(C)C2 [Example A4] | > 10000
7 | 100 to 1000 | 100 to 1000 | 100 to 1000 | 100 to 1000 | 100 to 1000 | 1000 to 10000 | 100 to 1000 | 100 to 1000 |  |  |  |  |  |  |  |  | CCn1c(-c2cnccc2COC)c2c3cc(ccc31)-c1cc(O)cc(c1)C[C@H](NC(=O)[C@H]([C@@H](C)OC)N(C)C(C)=O)C(=O)N1CCC[C@H](N1)C(=O)OCC(C)(C)C2 [Example A76] | 1000 to 10000
8 | 1000 to 10000 | 1000 to 10000 | 1000 to 10000 | 1000 to 10000 | 100 to 1000 | 1000 to 10000 | 100 to 1000 | 100 to 1000 |  |  |  |  |  |  |  |  | CCn1c(-c2cccnc2[C@H](C)OC)c2c3cc(ccc31)-c1cccc(c1)C[C@H](NC(=O)[C@H](C(C)C)N(C)C(=O)[C@H]1CCN(C(=O)CN(C)C)C1)C(=O)N1CCC[C@H](N1)C(=O)OCC(C)(C)C2 [Example A96] | 1000 to 10000
9 |  |  |  |  |  |  |  |  | 1000 to 10000 nM | 1000 to 10000 nM | 1000 to 10000 nM | 1000 to 10000 nM | 100 to 1000 nM | 1000 to 10000 nM | 100 to 1000 nM | 100 to 1000 nM | CCn1c(-c2cccnc2[C@H](C)OC)c2c3cc(ccc31)-c1cccc(c1)C[C@H](NC(=O)[C@H](C(C)C)N(C)C(=O)[C@H]1CCN(C(=O)CNC)C1)C(=O)N1CCC[C@H](N1)C(=O)OCC(C)(C)C2 [Example A98] | > 10000
